Assay [1] relates to T-bet−/−×RAG2−/− (TRUC) mice. In words: Histologic colitis scoring of colons from treated TRUC mice. Format: in vivo, mouse. The settings on record: for TRUC colitis (histologic colitis scores, in vivo antibiotic sensitivity): TRUC mice treated four weeks with single antibiotic in drinking water. The source says:
For studies of the progeny of antibiotic treated animals, progeny were weaned at 21 days and examined six weeks after weaning. These animals had no exposure to antibiotics after weaning.
Colons were removed from euthanized mice and dissected free from the anus to distal to the cecum. Colonic contents were removed and colons were cleaned with phosphate buffer saline or Hanks' balanced salt solution prior to fixation in 4% PFA or 10% neutral buffered formalin (NBF) followed by routine paraffin embedding. After paraffin embedding, […] sections were cut and stained with hematoxylin and eosin or as noted.
Sections were examined and the degree of colitis was blindly scored. Each of four histologic parameters were scored as absent (0), mild (1), moderate (2), or severe (3): mononuclear cell infiltraton, polymorphonuclear cell infiltration, epithelial hyperplasia, and epithelial injury, similar to previous studies (Neurath et al., 2002b). Colons from dextran sodium sulfate treated mice were scored using the following parameters scored on a scale of 0-4: percentage of colon involved by inflammation, percentage of crypt loss, presence of lymphoid follicles, edema, erosions, and density of inflammatory cells. The scores for the individual parameters were summed to give a total severity score. […]
Mice were treated as described previously (Fagarasan, S., et al. (2002). Science 298, 1424-1427; Rakoff-Nahoum, S., et al. (2004). Cell 118, 229-241). Alterations are as noted: in brief, animals were provided ampicillin (1 g/L; Roche), vancomycin (1 gm/L; Henry Schein, Inc. (Hospira, Inc.)), neomycin sulfate (1 g/L; Sigma (Teva Pharmaceuticals)), and metronidazole (1 g/L; Sigma) dissolved in their autoclaved drinking water and their fluid intake was monitored. […]
Mice were treated with the following antibiotics dissolved in their autoclaved drinking water as indicated: ampicillin (1 g/L; Roche), vancomycin (500 mg/L; Sigma), neomycin sulfate (1 g/L; Sigma), metronidazole (1 g/L; Sigma, solubilized with 15 ml of 0.1N acetic acid/L), and gentamicin (2 g/L; Cell Gro); and fluid intake monitored. […]

The subject of assay [2] is Klebsiella pneumoniae. Nature of the assay: Quantitative fecal culture of Gram-negative aerobes on MacConkey's medium. Format: in vivo. The settings on record: for fecal levels of K. pneumoniae after antibiotic: 4-week old TRUC mice, feces cultured 1d before and 1d after antibiotic, limit of detection 4.4 log10 CFU/g. On the procedure:
(§1) Individual mice were placed in autoclaved plastic cages. Fecal pellets were transferred immediately upon expulsion into capped microfuge tubes. 4-6 pellets were collected per mouse per time point. All Rag2^−/− mice in FIG. 2F were sampled twice over a 3d period for each weekly time point. Pellets were resuspended in sterile PBS and 10-fold serial dilutions were generated, plated on MacConkey's medium, and incubated in ambient air at 37° C. overnight. Biochemical assays with the API-20E panel (bioMerieux) confirmed that colony morphology correlated with Klebsiella pneumoniae, Proteus mirabilis, or E. coli: therefore, these organisms were subsequently identified based on their colony morphotypes.
(§2) The lower limit of detection for these studies was 10^4.4 cfu/gram fecal dry weight. A minimum of 30 colonies or a maximum of 300 colonies was counted at a given dilution and the serial dilution had to appropriately reflect the colony counts for the quantitative counts to pass our quality control standards.
(§3) Mice were treated with the following antibiotics dissolved in their autoclaved drinking water as indicated: ampicillin (1 g/L; Roche), vancomycin (500 mg/L; Sigma), neomycin sulfate (1 g/L; Sigma), metronidazole (1 g/L; Sigma, solubilized with 15 ml of 0.1N acetic acid/L), and gentamicin (2 g/L; Cell Gro); and fluid intake monitored.
(§4) Dextran sulfate sodium (M.W. 40-50,000; USB Cat# 14489) was dissolved in drinking water at a final concentration of 4% (w/v) and provided for 7d.
(§5) anti-TNF-α (clone TN3-19.12), a hamster anti-mouse TNF-α neutralizing IgGl antibody and control Ab (hamster anti-GST IgGl) were purchased from Leinco Technologies. Mice were injected with these reagents (15 mg/kg) on a weekly basis for four weeks (Garrett et al., 2007).
(§6) Peripheral lymph nodes were harvested and cell suspensions were generated as previously described. Fluorescence activated cell sorted C114^+CD62L^h,CD25^+ cells were collected and resuspended in PBS. 75,000 cells were injected per mouse. An equivalent amount of PBS was injected in the control group. 10 mice were injected with T-regulatory cells and nine mice with PBS. All mice were 4 weeks of age at the time of injection (Garrett et al., 2007). This experiment was stopped when the mice were 12 weeks old (as opposed to 14 weeks of age in the TNF-a blockade experiment), because two mice in the control group became quite moribund from their colitis, and euthanasia was indicated as per our animal protocol.

In assay [3] the test system is Proteus mirabilis. The description is as above. It counts as in vivo. The settings on record: for fecal levels of P. mirabilis after antibiotic: 4-week old TRUC mice, feces cultured 1d before and 1d after antibiotic, limit of detection 4.4 log10 CFU/g. The protocol:
as §1, §2, §3, §4, §5, §6

Assay [4] deals with Klebsiella pneumoniae. Nature of the assay: TNF-α bacterial co-culture (growth kinetics). Format: cell-based. The settings on record: in vitro mono-culture, 6 h, colony counts at 2 h intervals. The protocol:
(§7) TNF-a (final concentration 100u,g/mL culture medium), or PBS alone, was added to cultures of the designated microbes and bacterial concentrations (efu/ml) were followed during a 6 h incubation (37° C. with agitation in ambient air) at 2 h intervals. Bacteria were cultured in Luria Broth and plated on MacConkey's medium.

Assay [5] concerns Proteus mirabilis. In words: TNF-α bacterial co-culture (growth kinetics). Format: cell-based. The settings on record: in vitro mono-culture, 6 h, colony counts at 2 h intervals. On the procedure:
as §7

Setting [6] is: 8 week-old WT and Rag2−/− mice, 4% in drinking water one week, samples before and 1d after.

Entries after “also recorded” stand apart in the source; their conditions may differ.

In the case of `Cc1ncc([N+](=O)[O-])n1CCO` [metronidazole], the “TRUC colitis (histologic scores)” value in assay [1] (six week old TRUC mice, antibiotics 1 g/L each in drinking water for six weeks) is “cured the colitis”. Besides, the “fecal levels of K. pneumoniae after antibiotic” value in assay [2] was “below our limit of detection”. In assay [3], the “fecal levels of P. mirabilis after antibiotic” value is given as “below our limit of detection”.

For the compound `CN[C@H](CC(C)C)C(=O)N[C@H]1C(=O)N[C@@H](CC(N)=O)C(=O)N[C@H]2C(=O)N[C@H]3C(=O)N[C@H](C(=O)N[C@H](C(=O)O)c4cc(O)cc(O)c4-c4cc3ccc4O)[C@H](O)c3ccc(c(Cl)c3)Oc3cc2cc(c3O[C@@H]2O[C@H](CO)[C@@H](O)[C@H](O)[C@H]2O[C@H]2C[C@](C)(N)[C@H](O)[C@H](C)O2)Oc2ccc(cc2Cl)[C@H]1O` [vancomycin], in assay [1], the “TRUC colitis (histologic colitis scores, in vivo antibiotic sensitivity)” value was “does not; also recorded: neither abolished colitis”.

Take Dextran sulfate sodium: in assay [2] (setting [6]), the “culturable K. pneumoniae in fecal microbiota after dextran sulfate sodium” value is “did not detect”. Also, in assay [3] (setting [6]), the “culturable P. mirabilis in fecal microbiota after dextran sulfate sodium” value was “did not detect”.

For TNF-a, the “growth kinetics of K. pneumoniae in vitro” value in assay [4] was “did not affect the growth kinetics”. The “growth kinetics of P. mirabilis in vitro” value in assay [5] is recorded as “did not affect the growth kinetics”.

Regarding gentamicin, the “TRUC colitis (histologic colitis scores, in vivo antibiotic sensitivity)” value in assay [1] was “able to ameliorate and cure TRUC”. Also, the “fecal levels of K. pneumoniae after antibiotic” value in assay [2] is “below our limit of detection”. In addition, the “fecal levels of P. mirabilis after antibiotic” value in assay [3] is on record as “below our limit of detection”.
